Experimental data: patent US20040121968A1, “Antiangiogenesis by inhibiting protein kinase CK2 activity” (priority 2002, published 2004)

What was measured:
[1] = system: retinal endothelial cells (REC); assay: Secondary sprouting assay on Matrigel; format: cell-based, bovine; conditions: for inhibition of REC secondary sprouting: basal and growth factor-stimulated (quercetin 50 μM, emodin, DRB 20-25 μM), H-7: preliminary, not shown
Procedure: (§1) In vitro Matrigel™ assay of capillary-like tube formation and secondary sprouting. […] Briefly, 50 μL of reconstituted basement membrane matrix from mouse EHS tumor (BD or GFR Matrigel™; Becton Dickinson Labware, Bedford, Mass.) were dispensed with frozen pipettes into each well of a previously frozen, sterile 96-well plate sitting on wet ice and allowed to solidify for 1 hr at room temperature or 37° C. Approximately 5×10^4 or 7.5×10^4 REC in a 100 μL volume were seeded into each triplicate well. Human recombinant or purified growth factors were added to a final concentration of 10 ng/mL (or as noted) in 0.5% FCS incomplete BREC medium. Capillary-like tube structures formed by REC on reconstituted basement membrane matrix were photographed at various intervals ranging from 12-72 hr; pictures were scanned, digitized and analyzed using image-processing software. For the secondary sprouting assay, cells on reconstituted basement membrane matrix (BD Matrigel™) were seeded as above but incubated in 0.5% FCS incomplete BREC medium without any growth factors for 3 days, allowing for tube formation and collapse. On day 3, human recombinant or purified growth factors were added to a final concentration of 10 ng/mL (or as noted) in low-serum incomplete BREC medium and incubated for another 5-6 days. Digital photographs were obtained with a Kodak MDS 100 camera attached to a Leitz DM IL inverted microscope. Digitized images obtained with a Kodak MDS 100 video camera were stored on compact discs and quantified with NIH Image 1.62 software. The number of living cells in the sprouting colonies were determined using the MTS cell proliferation assay.
(§2) The cells form tubes on Matrigel™ by 16 hr, and by 48 hr, without TN-C or growth factors, the tubes collapse. Secondary sprouting with Matrigel™ invasion starts by day four in culture. Cultures were monitored microscopically. Culture medium with or without growth factors or inhibitors was changed every two-three days.

[2] = system: retinal endothelial cells (REC); assay: REC survival assay (low serum, MTS cell number); format: cell-based, bovine
Procedure: REC proliferation and survival assays. 96-well plates were coated with various amounts of TN-C or vehicle. 5×10^3 cells were added to each triplicate well in low-serum REC medium with various amounts of growth factors (0.5% FCS incomplete BREC medium containing 10 ng/ml of human IGF-I, FGF-2, VEGF, PlGF and PDGF-BB [R&D Systems Inc., Minneapolis, Minn.]). Cell numbers were determined on days 4-7 using the MTS cell proliferation assay (Promega Corp.) according to manufacturer's instructions. Survival was measured in the same way using high glucose (30 mM) or chemical hypoxia (2 mM sodium azide) or serum-free medium to induce cell death. Cell numbers were determined on days 4-7 using MTS assay (Promega).

[3] = Solubility in water / vehicle; format: physicochemical
[4] = system: oxygen-induced retinopathy in newborn mice; assay: Oxygen-induced retinopathy in newborn mice (retinal neovascularization); format: in vivo, mouse; conditions: for retinal neovascularization diminished by: two intraperitoneal injections daily, day 11-17 after birth, emodin 20-30 μg/g, vs untreated or vehicle-treated
[5] = system: retinal endothelial cells (REC); assay: Migration (wound healing) assay; format: cell-based, bovine; conditions: for inhibition of REC migration: basal and growth factor-stimulated (quercetin 50 μM, emodin, DRB 20-25 μM), H-7: preliminary, not shown; for effect on growth factor-mediated cell migration: bovine REC, four GFs (IGF-1+FGF-2+VEGF+PlGF) 10 ng/ml each, 7 days, 0.5% serum, emodin 10 μM, DRB 15 μM
Procedure: Migration assay. REC migration rates were examined in a wound healing assay, where cells migrate over time into the scrape wound in a monolayer. Briefly, cells were seeded in 24-well plates and allowed to reach confluence in growth medium. Prior to growth factor treatment, cells were serum-starved overnight in incomplete BREC medium with 0.5% FCS. All monolayers within an experiment were wounded with a single sterile wood stick of constant diameter, to ensure uniformity in the wound areas among different treatments. Wounded monolayers were then rinsed with low-serum medium to remove detached cells and treated with various combinations of human growth factors at 10 ng/mL each. On day 7, cells were rinsed 3× with PBS and fixed with methanol for 15 min, rehydrated with dH2O and stained with Meyer's hematoxylin for 5 min, followed by destaining with dH2O. All wells were photographed with a 4× or 10× objective using a Kodak MDS 100 digital camera attached to a Leitz DM IL inverted microscope. The original wound area was measured at 0 hr and used as a baseline for comparison to the treated wells at the conclusion of the experiment. The number of cells migrated into the wound was determined. Migrating cell counting was automated using the AAB (Advanced American Biotechnology, Fullerton, Calif.) software. Data were calculated and statistically analyzed (Spirin K S et al., Basement membrane and growth factor gene expression in normal and diabetic human retinas, Curr. Eye Res. 18:490-499 [1999]) relative to control cultures that received the same concentrations of bovine serum albumin instead of growth factors and/or inhibitor, compared to vehicle instead of inhibitor after wounding. Inhibitors were added 30 min before growth factors.

[6] = system: retinal endothelial cells (REC); assay: REC proliferation assay (MTS cell number); format: cell-based, bovine; conditions: for inhibition of REC proliferation: basal and growth factor-stimulated (quercetin 50 μM, emodin, DRB 20-25 μM), H-7: preliminary, not shown
Procedure: REC proliferation and survival assays. 96-well plates were coated with various amounts of TN-C or vehicle. […] Cell numbers were determined on days 4-7 using the MTS cell proliferation assay (Promega Corp.) according to manufacturer's instructions. Survival was measured in the same way using high glucose (30 mM) or chemical hypoxia (2 mM sodium azide) or serum-free medium to induce cell death. Cell numbers were determined on days 4-7 using MTS assay (Promega).

[7] = system: retinal endothelial cells (REC); assay: Matrigel assay of capillary-like tube formation; format: cell-based, bovine; conditions: for inhibition of REC tube formation: basal and growth factor-stimulated (quercetin 50 μM, emodin, DRB 20-25 μM)
Procedure: as §1, §2

[8] = system: normal REC and DR REC gene expression; assay: Gene array analysis of growth factor action on normal and DR REC; format: cell-based, human; conditions: 10 ng/mL growth factor, seven days, 0.5% serum
Procedure: Normal REC and DR REC gene expression patterns were compared by gene array analysis. Normal, diabetic and DR autopsy human eyes are obtained from National Disease Research Interchange (NDRI), within 24 hours after death. These eyes are used to isolate REC for culture as described hereinabove. Cultures can be used up to the fourth passage, and viable cultures can be cryogenically stored. Cultures of normal, diabetic and DR REC are established from autopsy human eyes and routinely checked for purity using von Willebrand factor immunostaining as described hereinabove. Cells are cultured in 50% F-12, 50% low-glucose DMEM with antibiotics/antimycotics (GIBCO/BRL), insulin-transferrin-selenite, ECGS (Sigma Chemical Co.), and 20% FCS. Statistical analysis of results is done with GraphPad Prism software (GraphPad Software).
In experiments, normal, diabetic, and DR REC were grown for seven days with or without 10 ng/ml VEGF, or 10 ng/mL IGF-I, or 10 ng/mL each VEGF and IGF-I, in medium with 0.5% serum. Long-term rather than short-term treatment was chosen because diabetes develops over a considerable time period. RNA isolated from REC was reverse-transcribed using Smart™ cDNA synthesis method (Clontech), to produce full-length cDNA. Two normal cases or two DR cases were pooled together. This cDNA was PCR-amplified with a short number of cycles and used as a probe for Clontech Atlas Human 1.2 1,200-gene arrays, according to the manufacturer's instructions. This technique had previously been refined and verified by Northern analysis and fully correlated gene array data with protein expression. (Spirin K S et al., Analysis of gene expression in human bullous keratopathy corneas containing limiting amounts of RNA, Invest. Ophthalmol. Vis. Sci. 40:3108-3115 [1999]). Samples were normalized to several housekeeping genes and the analysis was done with available AtlasImage 2.0 software (Clontech). Signal ratio>2 between samples was considered significant as per manufacturer's recommendation.

[9] = emodin-treated vs vehicle control
[10] = growth factors at 10 ng/ml each

Compound: FGF-2: fibroblast growth factor (FGF)-2
- growth factor effect on secondary sprouting (in words) ([1]; 10 ng/mL growth factor): greatly enhanced
- stimulation of secondary sprouting (fold) ([1]; growth factors, on average): four-fold

Compound: OC[C@H]1O[C@@H](n2cnc3cc(Cl)c(Cl)cc32)[C@H](O)[C@@H]1O [DRB, 5,6-dichloro-1-β-D-ribofuranosylbenzimidazole]
- inhibition of REC secondary sprouting [1]: potently inhibited
- concentration from which cell number in secondary sprouting is significantly decreased ([1]; bovine REC on Matrigel, 0.5% serum, day 9, MTS): ≥ 25 µM
- effect on number of live cells (survival) ([2]; bovine REC, 0.5% serum, various concentrations, day 6, MTS): significantly lowers cell number
- solubility in water [3]: not easily dissolved in water
- retinal neovascularization diminished by [4]: about 60%
- inhibition of REC migration [5]: potently inhibited
- effect on growth factor-mediated cell migration [5]: significant inhibitory effect
- inhibition of REC proliferation [6]: potently inhibited
- effect on number of live cells (proliferation) ([6]; bovine REC, 10% serum, various concentrations, day 6, MTS): significantly lowers cell number
- inhibition of REC tube formation [7]: potently inhibited

Compound: IGF-I: insulin-like growth factor (IGF)-I
- expression of pro-apoptotic genes [8]: decrease

Compound: CC1CNCCN1S(=O)(=O)c1cccc2cnccc12 (stereo not drawn) [H-7]
- inhibition of REC secondary sprouting [1]: inhibited
- inhibition of REC migration [5]: inhibited
- inhibition of REC proliferation [6]: inhibited
- effect on REC tubes on Matrigel ([7]; preliminary results, not shown): stabilized

Compound: Cc1cc(O)c2c(c1)C(=O)c1cc(O)cc(O)c1C2=O [emodin, 3-methyl-1,6,8-trihydroxyanthraquinone]
- inhibition of REC secondary sprouting [1]: potently inhibited
- solubility in water [3]: not easily dissolved in water
- solubility in vehicle ([3]; phosphate-buffered saline with 20% PEG 400 + 2% Tween-80, pH 7.2): did not ensure emodin solubility
- neovascular tufts in fluorescein angiograms [4, 9]: much less pronounced
- retinal vascularization in fluorescein angiograms [4, 9]: significantly less vascularization
- retinal neovascularization diminished by [4]: 70-75%
- inhibition of REC migration [5]: potently inhibited
- effect on growth factor-mediated cell migration [5]: significant inhibitory effect
- inhibition of REC proliferation [6]: potently inhibited
- inhibition of REC tube formation [7]: potently inhibited

Compound: VEGF
- expression of pro-apoptotic genes [8]: did not display an increase
- expression of proliferation-related genes [8]: upregulated
- growth factor effect on REC survival [2, 10]: little effect
- growth factor effect on REC migration [5, 10]: significantly enhanced

Compound: O=c1c(O)c(-c2ccc(O)c(O)c2)oc2cc(O)cc(O)c12 [quercetin]
- inhibition of REC secondary sprouting [1]: potently inhibited
- effect on retinal neovascularization ([4]; intramuscular injections, data not shown): substantial effect
- inhibition of REC migration [5]: potently inhibited
- inhibition of REC proliferation [6]: potently inhibited
- inhibition of REC tube formation [7]: potently inhibited
